Laboratory results: EP1595878A1, “INDOLE DERIVATIVES WITH APOPTOSIS INDUCING ACTIVITY” (Zentaris GmbH, priority 2004, dated 2005)
In brackets after ≈: the same amount, converted by molar mass. Read-outs that look alike come from different tables or passages of the source.

Columns and labels:
human Topoisomerase II = human Topoisomerase II (Homo sapiens, UniProt P11388); test: pRYG relaxation assay for topoisomerase II activity; type: biochemical; conditions: compound 1 at 100, 31.6 and 10 µM; reference compounds at 316 and 100 µM
Description: Mit diesem Relaxationsassay konnte zusätzlich die inhibitorische Eigenschaft der erfindungsgemäßen Verbindungen auf Topoisomerase II gezeigt werden. Die Testung der erfindungsgemäßen Verbindung 1 erfolgte hierbei bei drei unterschiedlichen Konzentrationen (100, 31.6 und 10 µM). Zum Vergleich setzte man die Referenzverbindungen m-Amsacrin, Paclitaxel (Taxol) und Vincristine bei Konzentrationen von 316 und 100µM ein.
Zu 1µL vorgelegter Testsubstanz (20fach konzentriert in 100% DMSO) werden 2µL 10x Assay Puffer, 0,5µL pRYG DNA (125ng), 0,5µL human Topoisomerase II (1 unit) und 16µL H2O pipettiert und gemischt. Die Reaktionsansätze werden in den auf 37°C vorgeheizten Heizblock gestellt und 30min bei 37°C inkubiert. Die Inkubation wird nach Zugabe von 4µL 5x Stop Puffer abgestoppt. Danach werden 10µL des Ansatzes auf ein 1,2% Agarosegel mit 0,25µg/mL Ethidiumbromid aufgetragen und 2,5h bei 100V aufgetrennt. Zum Schluß wird das Gel unter UV Anregung fotografiert (s. Figur 3). Die Quantifizierung der Inhibierung der pRYG Relaxation erfolgt mit der GelPro®Analyzer Software (s. Figur 4).

[1] = target: humaner DNA-Topoisomerase II (Homo sapiens, UniProt P11388); test: kDNA decatenation assay for topoisomerase II activity; type: biochemical; conditions: compound 1 at 100, 31.6 and 10 µM; reference compounds at 100 µM
Description: In diesem von P. Arimondo (Anti-Cancer Drug Design 2000, 15 (6), 413-421) beschriebenen Assay wird kDNA mit humaner DNA-Topoisomerase II in Abwesenheit oder Gegenwart der Testverbindungen behandelt. Die Testung der erfindungsgemäßen Verbindung 1 erfolgte hierbei bei drei unterschiedlichen Konzentrationen (100, 31.6 und 10 µM). Zum Vergleich setzte man eine Positivkontrolle und die Referenzverbindungen m-Amsacrin (m-Amsa), Paclitaxel (Taxol) und Vincristine bei einer jeweiligen Konzentration von 100µM ein.
Zu 1µL vorgelegter Testsubstanz (20fach konzentriert in 100% DMSO) werden 2µL 10x Assay Puffer, 1µL kDNA (200ng), 0,5µL human Topoisomerase II (1unit) und 15,5µL H2O pipettiert und gemischt.
Die Reaktionsansätze werden in den auf 37°C vorgeheizten Heizblock gestellt und 10min bei 37°C inkubiert. Die Inkubation wird nach Zugabe von 4µL 5x Stop Puffer gestoppt und nachfolgend die Substanz mit CIA extrahiert. Danach werden 20µL des Überstandes auf ein 1 % Agarosegel mit 0,25µg/mL Ethidiumbromid aufgetragen und 1 h bei 100V aufgetrennt. Zum Schluss wird das Gel unter UV-Anregung fotografiert (s. Figur 1). Die Quantifizierung der Inhibierung der Decatenation von kDNA erfolgt mit der GelPro®Analyzer Software (s. Figur 2)

Rindertubulin = test: Inhibition of tubulin polymerisation in vitro; type: biochemical, Rind; conditions: for Hemmwirkung auf die Polymerisation von Tubulin: verbal summary of Table 3; for EC50: cells print µM, head µg/ml, read-out: Hemmung der Tubulin-Polymerisation, EC50
Description: Die Substanzen 1, 4, 9, 11, 12, 13 und 15 wurden in einem in-vitro Test auf Hemmung der Polymerisation von Rindertubulin getestet (D.M. Bollag et al. Cancer Res. 1995, 55, 2325-2333). In diesem Test wird durch Zyklen von Polymerisation und Depolymerisation aufgereinigtes Tubulin eingesetzt, welches durch Zugabe von GTP und Erwärmung zur Polymerisation gebracht wird. In Tabelle 3 sind die EC50 Werte der Polymerisationshemmung von Tubulin mit 30% assoziierten Proteinen (MAPs) angegeben.

[2] = system: humane Glioblastom Zelllinie SF-268 (NCI 503138); test: XTT proliferation assay (cytotoxicity test), SF-268; type: cell-based; conditions: Homo sapiens, read-out: XTT Proliferationsassay, EC50
Description: (§1) Die Substanzen 1, 2, 4, 9, 11, 12 , 13 und 15 wurden in einem Proliferationstest an etablierten Tumorzelllinien auf ihre anti-proliferative Aktivität hin untersucht (D.A. Scuderio et al. Cancer Res. 1988, 48, 4827-4833). Der verwendete Test bestimmt die zelluläre Dehydrogenase-Aktivität und ermöglicht eine Bestimmung der Zellvitalität und indirekt der Zellzahl. Bei den verwendeten Zelllinien handelt es sich um die humane Cervixkarzinom Zelllinie KB/HeLa (ATCC CCL17), die ovariale Adenokarzinomzelllinie SKOV-3 (ATCC HTB77), die humane Glioblastom Zelllinie SF-268 (NCI 503138) und die Lungenkarzinom Zelllinie NCI-H460 (NCI 503473).

[3] = system: humane Cervixkarzinom Zelllinie KB/HeLa (ATCC CCL17); test: XTT proliferation assay (cytotoxicity test), KB/HeLa; type: cell-based; conditions: Homo sapiens, read-out: XTT Proliferationsassay, EC50
Description: as §1

[4] = system: Lungenkarzinom Zelllinie NCI-H460 (NCI 503473); test: XTT proliferation assay (cytotoxicity test), NCI-H460; type: cell-based; conditions: Homo sapiens, NCl-H460, read-out: XTT Proliferationsassay, EC50
Description: as §1

[5] = system: ovariale Adenokarzinomzelllinie SKOV-3 (ATCC HTB77); test: XTT proliferation assay (cytotoxicity test), SKOV-3; type: cell-based; conditions: Homo sapiens, SK-OV-3; SKOV3; read-out: XTT Proliferationsassay, EC50
Description: as §1

KB/HeLa Zellen = test: Cell cycle analysis (G2/M arrest); type: cell-based; conditions: Homo sapiens, read-out: EC50 in nM (50% cells in G2/M)
Description: Der Zellzyklus umfasst die Entwicklung der Zelle von einer Zellgeneration zur nächsten.
Während der Ruhephase (G0) und präsynthetischen Phase (G1) besitzt die Zelle einen diploiden Chromosomensatz (2c). In der Synthesephase (S) wird die DNA-Menge durch Replikation vermehrt. Die S-Phase endet mit Erreichen der prämitotischen Phase (G2M), in der die Zelle einen reduplizierten Chromosomenbestand (4c) und verdoppelten DNA-Gehalt aufweist. In der nachfolgenden, kurzdauernden Mitosephase (M) kommt es zur gleichmäßigen Aufteilung der reduplizierten Chromosomen auf zwei Tochterzellen, die dann jeweils wieder einen diploiden DNA Gehalt zeigen und sich in der G01-Phase befinden, so daß der Zellzyklus neu beginnen kann.
Für die Zellzyklusanalyse wurden KB/HeLa Zellen mit den Testsubstanzen in unterschiedlichen Konzentrationen (0.1-1000 nM) 24 Stunden bei 37°C behandelt.
Der prozentuale Anteil der in der G2/M Phase des Zellzyklus arrettierten Zellen nach Behandlung mit Referenz- oder ausgewählten Testsubstanzen ist in der nachfolgenden Tabelle 4 dargestellt. Die Ergebnisse wurden mit einer speziellen Analysesoftware (ModFit™) ausgewertet.

Melanom, MEXF462 = type: in vivo, Mäuse; conditions: for Todesfällen: dead animals / total
Description: Die in vivo Aktivität und Verträglichkeit der erfindungsgemäßen Verbindung 2 wurde im Vergleich zu den Substanzen 10 und 14 in einem humanen Xenograft-Modell (Melanom, MEXF462) überprüft. Die Ergebnisse sind in der nachfolgenden Tabelle 6 zusammengefasst: in vivo Aktivitäten von Verbindung 2, 10 and 14 (Melanom; MEXF462) Tabelle 6: […]

LT12/mdr = test: XTT proliferation assay, resistant LT12/mdr; type: cell-based; conditions: Rattus norvegicus, LT12; LT12mdr; read-out: XTT Proliferationsassay, EC50
Description: as §1, with “503473). Tabelle 1:” for “503473).”
(§2) Zur weiteren Charakterisierung wurden die Substanzen 1, 2, 4 und 11 gegenüber multi drug resistenten Zelllinien im Vergleich zu den nicht-resistenten Wildtypzelllinien untersucht.
(§3) Bei den untersuchten Zelllinien handelt es sich um die murine L1210, die akute myeloische Leukaemie Zelllinie LT12 und um die resistenten Linien L1210/mdr und LT12/mdr. Außerdem wurden die murine P388 Zelllinie (methyl-cholanthreneinduced lymphoid neoplasm) sowie die Doxorubicin-resistente P388 als Testsysteme herangezogen.

[6] = system: Doxorubicin-resistente P388; test: XTT proliferation assay, doxorubicin-resistant P388; type: cell-based, murine; conditions: Mus musculus, P388; P388ADR; read-out: XTT Proliferationsassay, EC50
Description: as §1, with “503473). Tabelle 1:” for “503473).”
as §2, §3

L1210VCR = test: XTT proliferation assay, resistant L1210; type: cell-based, murine; conditions: Mus musculus, L1210; L1210VCR; read-out: XTT Proliferationsassay, EC50
Description: as §1, with “503473). Tabelle 1:” for “503473).”
as §2, §3

Mamma, MAXF857 = type: in vivo, Mäuse; conditions: 40 mg/kg p.o.; for Todesfällen: dead animals / total
Description: Die in vivo Aktivität und Verträglichkeit der erfindungsgemäßen Verbindung 2 wurde im Vergleich zu der Substanz 10 in einem weiteren humanen Xenograft-Modell (Mamma, MAXF857) überprüft. Die Ergebnisse werden in der nächsten Tabelle gezeigt: Effect of 2 and 10 on the Mammary Cancer MAXF857 Tabelle 7: […]

[7] = tubulin with 30% associated proteins (MAPs)

human Topoisomerase II, sequence (P11388 whole entry): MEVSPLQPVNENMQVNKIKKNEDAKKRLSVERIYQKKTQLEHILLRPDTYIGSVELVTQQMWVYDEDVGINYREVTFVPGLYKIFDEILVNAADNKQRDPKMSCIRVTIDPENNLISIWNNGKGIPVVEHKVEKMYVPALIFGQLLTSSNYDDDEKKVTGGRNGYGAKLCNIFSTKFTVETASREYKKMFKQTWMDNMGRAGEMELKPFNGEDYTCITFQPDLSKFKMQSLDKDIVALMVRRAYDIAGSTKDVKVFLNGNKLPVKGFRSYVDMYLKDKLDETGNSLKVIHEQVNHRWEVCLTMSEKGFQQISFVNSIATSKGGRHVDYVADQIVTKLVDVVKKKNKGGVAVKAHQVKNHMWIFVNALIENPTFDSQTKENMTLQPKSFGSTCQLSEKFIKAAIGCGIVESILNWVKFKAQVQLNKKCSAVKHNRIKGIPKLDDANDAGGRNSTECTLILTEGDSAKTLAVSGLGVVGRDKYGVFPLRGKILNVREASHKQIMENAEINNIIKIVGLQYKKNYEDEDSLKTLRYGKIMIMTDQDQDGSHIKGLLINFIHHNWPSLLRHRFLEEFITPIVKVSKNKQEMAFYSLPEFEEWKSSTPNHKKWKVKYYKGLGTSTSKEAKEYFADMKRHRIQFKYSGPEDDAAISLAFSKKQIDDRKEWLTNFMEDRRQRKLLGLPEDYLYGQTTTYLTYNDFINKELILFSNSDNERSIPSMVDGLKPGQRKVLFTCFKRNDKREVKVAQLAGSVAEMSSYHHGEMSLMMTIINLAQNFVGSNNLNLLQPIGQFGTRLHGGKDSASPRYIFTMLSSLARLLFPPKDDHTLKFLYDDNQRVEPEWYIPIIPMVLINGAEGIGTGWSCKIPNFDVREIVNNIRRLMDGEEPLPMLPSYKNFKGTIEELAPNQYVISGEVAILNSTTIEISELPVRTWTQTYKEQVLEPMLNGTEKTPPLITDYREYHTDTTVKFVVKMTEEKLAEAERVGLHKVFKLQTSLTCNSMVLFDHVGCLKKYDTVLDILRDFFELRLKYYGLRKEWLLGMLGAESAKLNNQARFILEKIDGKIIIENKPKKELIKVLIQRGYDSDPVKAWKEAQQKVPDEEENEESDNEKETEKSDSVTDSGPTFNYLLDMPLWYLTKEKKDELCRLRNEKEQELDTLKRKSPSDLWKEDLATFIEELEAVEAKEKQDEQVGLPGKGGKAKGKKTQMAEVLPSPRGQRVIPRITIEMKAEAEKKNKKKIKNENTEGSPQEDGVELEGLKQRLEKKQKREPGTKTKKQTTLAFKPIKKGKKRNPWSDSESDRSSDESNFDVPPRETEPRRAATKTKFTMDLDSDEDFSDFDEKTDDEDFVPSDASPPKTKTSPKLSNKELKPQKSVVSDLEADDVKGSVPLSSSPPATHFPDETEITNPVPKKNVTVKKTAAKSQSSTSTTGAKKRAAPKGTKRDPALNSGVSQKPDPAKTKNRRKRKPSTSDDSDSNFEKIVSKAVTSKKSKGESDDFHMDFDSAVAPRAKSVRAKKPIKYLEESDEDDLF
humaner DNA-Topoisomerase II, sequence (P11388 whole entry): as above

With `CC(=O)O[C@H]1C(=O)[C@@]2(C)[C@H]([C@H](OC(=O)c3ccccc3)[C@]3(O)C[C@H](OC(=O)[C@H](O)[C@@H](NC(=O)c4ccccc4)c4ccccc4)C(C)=C1C3(C)C)[C@]1(OC(C)=O)CO[C@@H]1C[C@@H]2O` [Paclitaxel] the “Hemmung der Topoisomerase II (Inhibierung der pRYG Relaxation)” value (human Topoisomerase II) was “keine inhibitorischen Effekte” and the “Hemmung der Topoisomerase II (Inhibierung der Decatenation von kDNA)” value [1] was “keine inhibitorischen Effekte”.
`Cc1ccc2cc(NC(=O)C(=O)c3cn(Cc4ccc(Cl)cc4)c4ccccc34)ccc2n1` [Verbindung 9, 2-[1-(4-Chlor-benzyl)-1H-indol-3-yl]-N-(2-methyl-chinolin-6-yl)-2-oxo-acetamid] was tested, and the “Hemmwirkung auf die Polymerisation von Tubulin” value (Rindertubulin) was “sehr potente Hemmwirkung”.
For `Cc1ccc2cccc(NC(=O)C(=O)c3cn(Cc4ccc(F)cc4)c4ccccc34)c2n1` [Verbindung 15, 2-[1-(4-Fluor-benzyl)-1H-indol-3-yl]-N-(2-methyl-chinolin-8-yl)-2-oxo-acetamid], the EC50 [2] was over 3.16 µg/mL, the EC50 (Rindertubulin; [7]) was over 10 µM and the “Hemmwirkung auf die Polymerisation von Tubulin” value (Rindertubulin) was “keinen Effekt”. It also gave an EC50 [3] of over 3.16 µg/mL.
Compound `O=C(Nc1cccc2cnccc12)C(=O)c1cn(Cc2ccc(Cl)cc2)c2ccccc12` [Verbindung 13, 2-[1-(4-Chlor-benzyl)-1H-indol-3-yl]-N-isochinolin-5-yl-2-oxo-acetamid] has an EC50 [4] of over 3.16 µg/mL, an EC50 [2] of over 3.16 µg/mL and an EC50 [5] of over 3.16 µg/mL. The EC50 (Rindertubulin; [7]) was over 10 µM, the “Hemmwirkung auf die Polymerisation von Tubulin” value (Rindertubulin) was “keinen Effekt” and the EC50 [3] was over 3.16 µg/mL.
In the case of `CC[C@]1(O)C[C@H]2CN(CCc3c([nH]c4ccccc34)[C@@](C(=O)OC)(c3cc4c(cc3OC)N(C=O)[C@H]3[C@@](O)(C(=O)OC)[C@H](OC(C)=O)[C@]5(CC)C=CCN6CC[C@]43[C@@H]65)C2)C1` [Vincristine], the “Hemmung der Topoisomerase II (Inhibierung der pRYG Relaxation)” value (human Topoisomerase II) is reported as “keine inhibitorischen Effekte” and the “Hemmung der Topoisomerase II (Inhibierung der Decatenation von kDNA)” value [1] is reported as “keine inhibitorischen Effekte”.
With `O=C(Nc1ccncc1)C(=O)c1cn(Cc2ccc(Cl)cc2)c2ccccc12` [Verbindung 14, 2-[1-(4-Chlor-benzyl)-1H-indol-3-yl]-2-oxo-N-pyridin-4-yl-acetamid] the EC50 (KB/HeLa Zellen; HeLa, 24 h) was over 1000 nM, the “Optimale T/C % (Tag)” value (Melanom, MEXF462; 16 mg/kg p.o., day 18) was 0.7% (18) and the Todesfällen (Melanom, MEXF462; 16 mg/kg p.o.) was 3/5 Mäuse tot. For the same compound, the “Optimale T/C % (Tag)” value (Melanom, MEXF462; 32 mg/kg p.o., day 7) was 14.6% (7) and the Todesfällen (Melanom, MEXF462; 32 mg/kg p.o.) was 3/5 Mäuse tot.
`O=C(Nc1ccc2[nH]ncc2c1)C(=O)c1cn(Cc2ccc(Cl)cc2)c2ccccc12` [Verbindung 4, 2-[1-(4-Chlor-benzyl)-1H-indol-3-yl]-N-(1H-indazol-5-yl)-2-oxo-acetamid] showed an EC50 (LT12/mdr) of 0.093 µg/mL (≈ 0.217 µM), an EC50 (KB/HeLa Zellen; KB/HeLa cells, 0.1-1000 nM, 24 h at 37°C) of 252 nM and an EC50 [6] of 0.231 µg/mL (≈ 0.539 µM). The EC50 (L1210VCR) was 0.241 µg/mL (≈ 0.562 µM) and the “Hemmwirkung auf die Polymerisation von Tubulin” value (Rindertubulin) was “sehr potente Hemmwirkung”.
In the case of `O=C(Nc1cccc2cccnc12)C(=O)c1cn(Cc2ccc(Cl)cc2)c2ccccc12` [Verbindung 12, 2-[1-(4-Chlor-benzyl)-1H-indol-3-yl]-2-oxo-N-chinolin-8-yl-acetamid], the EC50 [4] is reported as over 3.16 µg/mL, the EC50 [2] is reported as over 3.16 µg/mL and the EC50 [5] is reported as over 3.16 µg/mL. The EC50 (Rindertubulin; [7]) was over 10 µM, the “Hemmwirkung auf die Polymerisation von Tubulin” value (Rindertubulin) was “keinen Effekt” and the EC50 [3] was over 3.16 µg/mL.
With `O=C(Nc1ccc2ncccc2c1)C(=S)c1cn(Cc2ccc(Cl)cc2)c2ccccc12` [Verbindung 11, 2-[1-(4-Chlor-benzyl)-1H-indol-3-yl]-N-chinolin-6-yl-2-thioxo-acetamid] the “Hemmung der Tubulin-Polymerisation, EC50” value (Rindertubulin; tubulin with 30% associated proteins (MAPs), mean of two independent experiments) was 0.97 µg/mL and the “Hemmwirkung auf die Polymerisation von Tubulin” value (Rindertubulin) was “sehr potente Hemmwirkung”.
In the case of `O=C(Nc1ccc2ncccc2c1)C(=O)c1cn(Cc2ccc(Cl)cc2)c2ccccc12` [Verbindung 10, 2-[1-(4-Chlor-benzyl)-1H-indol-3-yl]-2-oxo-N-chinolin-6-yl-acetamid], the “Optimale T/C % (Tag)” value (Mamma, MAXF857; day 10) is reported as 6.5% (10), the Todesfällen (Mamma, MAXF857) is reported as 2/6 and the Todesfällen (Mamma, MAXF857; listed as 10 (V)) is reported as 2/6 Mäuse tot. For the same compound, the “Optimale T/C % (Tag)” value (Melanom, MEXF462; 55 mg/kg p.o., day 14) was 0.8% (14), the Todesfällen (Melanom, MEXF462; 55 mg/kg p.o.) was 2/6 Mäuse tot and the “Optimale T/C % (Tag)” value (Melanom, MEXF462; 70 mg/kg p.o., day 7) was 2.3% (7). The Todesfällen (Melanom, MEXF462; 70 mg/kg p.o.) was 5/6 Mäuse tot.
